# Experimental data published in patent US5039806A, “Novel pharmacologically active compound pyridyl methylsulfinyl benzimidazole” (AB Hassle, priority 1983, dated 1991).
# Tested on: isolated rabbit gastric glands
# Experiment: Inhibiting effect in vitro on acid secretion in isolated rabbit gastric glands (14C-aminopyrine accumulation)
# Type: cell-based
# Conditions: Oryctolagus cuniculus, 1 h, logarithm of concentration (in M) giving 50% inhibition of aminopyrine accumulation; 5×10^-5 M histamine, 60 min, free base
# Protocol: I. Inhibiting effect in vitro on acid secretion in isolated rabbit gastric glands
# Isolated rabbit gastric glands were prepared as described by Berglindh et al., Acta physiol. scand. 1976. 96. 150-159. This method involves vascular perfusion of the rabbit stomach via the gastric arteries, scraping and scissor mincing of the separated gastric mucosa and collagenase (0.1%, Type I, Sigma Chemicals, St. Louis, MO. USA) digestion at 37° C. for 60-90 min. The glands are then harvested and filtered through nylon cloth to remove coarse fragments. The glands are thereafter incubated at 37° C. in a medium containing NaCl 132.4 mM, KCl 5.4 mM, […], NaH2 PO4 1.0 mM, MgSO4 1.2 mM, CaCl2 1.0 mM, glucose 10 mM, and 1 mg/ml rabbit albumine, pH 7.4.
# The acid secretion in the isolated gland preparation was recorded by measuring the uptake of ^14 C-labelled aminopyrine into the glands as described by Berglindh et al., Acta physiol. scand. 1976. 97. 401-414. Accumulation of aminopyrine in the glands indicates gastric acid secretion within the glands. The standard medium contained 10^-6 M ^14 C-aminopyrine (Amersham, Great Britain). After the incubation period, the glands were centrifuged, the supernatant was removed and the glands dried, weighed and dissolved in Soluene -350 (Packard, IU. USA). Samples of the supernatant and glands were separately counted in a scintillation counter. The accumulation of ^14 C-labelled aminopyrine in the glands was calculated as detailed by Berglindh et al., Acta physiol. scand. 1976. 97. 403.
# Glands were incubated for 60 min. in the presence of 5×10^-5 M histamine and the test compound to be studied. The free base of the test compound was dissolved in methanol. The final concentration of methanol was 1% in the incubation medium, having no influence on the aminopyrine accumulation ratio.
row,Compound,IC50
1,"CCCCCCCOc1c(C)cc2[nH]c([S+]([O-])Cc3ncc(C)c(OC)c3C)nc2c1C (centres unmarked) [Example 2, 4,6-dimethyl-5-heptyloxy-2-[[(4-methoxy-3,5-dimethyl-2-pyridinyl)methyl]sulfinyl]-1H-benzimidazole]",1260 nM
2,C=CCOc1c(C)cnc(C[S+]([O-])c2nc3c(C)c(C)cc(C)c3[nH]2)c1C (centres unmarked) [Example 18],1260 nM
3,COc1c(C)cnc(C[S+]([O-])c2nc3c(C)c(C)cc(C)c3[nH]2)c1C (centres unmarked) [Example 20],1000 nM
4,C=CCOc1c(C)cnc(C[S+]([O-])c2nc3c(C)c(C)ccc3[nH]2)c1C (centres unmarked) [Example 22],1000 nM
5,C=CCOc1c(C)cnc(C[S+]([O-])c2nc3cc(C)c(C)cc3[nH]2)c1C (centres unmarked) [Example 24],1000 nM
6,C=CCOc1c(C)cnc(C[S+]([O-])c2nc3c(C)ccc(C)c3[nH]2)c1C (centres unmarked) [Example 26],1260 nM
7,C=CCOc1c(C)cnc(C[S+]([O-])c2nc3c(C)cccc3[nH]2)c1C (centres unmarked) [Example 28],1260 nM
8,C=CCOc1c(C)cnc(C[S+]([O-])c2nc3cc(C)ccc3[nH]2)c1C (centres unmarked) [Example 30],1260 nM
9,C=CCOc1c(C)cnc(C[S+]([O-])c2nc3cc(OC)ccc3[nH]2)c1C (centres unmarked) [Example 32],2510 nM
10,C#CCOc1c(C)cnc(C[S+]([O-])c2nc3cc(OC)ccc3[nH]2)c1C (centres unmarked) [Example 34],10000 nM
11,CCc1cnc(C[S+]([O-])c2nc3cc(OC)ccc3[nH]2)cc1OC (centres unmarked) [Example 35],2510 nM
12,COc1ccc2[nH]c([S+]([O-])Cc3cc4c(cn3)CCCC4)nc2c1 (centres unmarked) [Example 37],10000 nM
13,C=CCOc1c(C)cnc(C[S+]([O-])c2nc3c(C)cc(C)cc3[nH]2)c1C (centres unmarked) [Example 41],1260 nM
14,COc1c(C)cnc(C[S+]([O-])c2nc3cc(OCC#N)ccc3[nH]2)c1C (centres unmarked) [Example 43],39800 nM
15,C=CCOc1c(C)cnc(C[S+]([O-])c2nc3cc(C(=O)OC)c(C)cc3[nH]2)c1C (centres unmarked) [Example 55],5010 nM
16,COCCOc1c(C)cc2[nH]c([S+]([O-])Cc3ncc(C)c(OC)c3C)nc2c1C (centres unmarked) [Example 58],1260 nM
17,COCCOc1c(C)cc2[nH]c([S+]([O-])Cc3cc(C)c(C)cn3)nc2c1C (centres unmarked) [Example 60],3980 nM
18,CC(=O)c1c(C)cc2[nH]c([S+]([O-])Cc3ncc(C)cc3C)nc2c1C (centres unmarked) [Example 64],1580 nM

row,Compound,IC50
1,CCC(=O)c1c(C)cc2[nH]c([S+]([O-])Cc3ncc(C)c(OC)c3C)nc2c1C (centres unmarked) [Example 66],1000 nM
2,CCc1c(C)cc2[nH]c([S+]([O-])Cc3nccc(OC)c3C)nc2c1C (centres unmarked) [Example 70],1260 nM
3,CCc1cc2[nH]c([S+]([O-])Cc3ncc(C)c(OC)c3C)nc2c(CC)c1C#N (centres unmarked) [Example 72],10000 nM
4,CCc1cnc(C[S+]([O-])c2nc3cc(C)c(C)cc3[nH]2)cc1OC (centres unmarked) [Example 77],1000 nM
5,COc1c(C)cnc(C[S+]([O-])c2nc3cc(C(=O)N4CCCCC4C)ccc3[nH]2)c1C (centres unmarked) [Example 79],10000 nM
6,COc1c(C)cnc(C[S+]([O-])c2nc3c(ccc4ccccc43)[nH]2)c1C (centres unmarked) [Example 83],5010 nM
7,COc1c(C)cnc(C[S+]([O-])c2nc3cc(OCCCOc4ccccc4)ccc3[nH]2)c1C (centres unmarked) [Example 91],1580 nM
8,COc1ccc2[nH]c([S+]([O-])Cc3ncc(C)c(OCCC(C)C)c3C)nc2c1 (centres unmarked) [Example 96],794 nM
9,COc1c(C)cnc(C[S+]([O-])c2nc3c(cc4c5c(cccc53)CC4)[nH]2)c1C (centres unmarked) [Example 98],2510 nM
10,C=CCOc1c(C)cnc(C[S+]([O-])c2nc3cc(C(C)(C)C)ccc3[nH]2)c1C (centres unmarked) [Example 102],1260 nM
11,COCCc1ccc2[nH]c([S+]([O-])Cc3ncc(C)c(OC)c3C)nc2c1 (centres unmarked) [Example 104],2000 nM
12,COc1c(C)cnc(C[S+]([O-])c2nc3cc4c(cc3[nH]2)OC2(CCCCC2)O4)c1C (centres unmarked) [Example 106],1000 nM
13,C=CCOc1c(C)cnc(C[S+]([O-])c2nc3cc(CCC(C)=O)ccc3[nH]2)c1C (centres unmarked) [Example 113],1580 nM
14,C=CCOc1c(C)cnc(C[S+]([O-])c2nc3cc(Br)ccc3[nH]2)c1C (centres unmarked) [Example 129],1000 nM
15,Cc1cnc(C[S+]([O-])c2nc3cc4c(cc3[nH]2)OCO4)c(C)c1C (centres unmarked) [Example 142],1000 nM
16,CCc1cnc(C[S+]([O-])c2nc3cc(C(=O)OC)c(C)cc3[nH]2)cc1OC (centres unmarked) [Example 143],794 nM
17,CCOc1c(C)cnc(C[S+]([O-])c2nc3c(C)c(C#N)c(C)cc3[nH]2)c1C (centres unmarked) [Example 153],6310 nM

# Further lines, results first:
row,IC50,Compound
1,200 nM,"COc1c(C)cc2[nH]c([S+]([O-])Cc3nccc(C)c3C)nc2c1C (centres unmarked) [Example 1, 4,6-dimethyl-5-methoxy-2-[[(3,4-dimethyl-2-pyridinyl)methyl]sulfinyl]-1H-benzimidazole]"
2,316 nM,"COc1c(C)cnc(C[S+]([O-])c2nc3c(C)c(OC)c(C)cc3[nH]2)c1C (centres unmarked) [Example 8, 4,6-dimethyl-5-methoxy-2-[[(4-methoxy-3,5-dimethyl-2-pyridinyl)methyl]sulfinyl]-1H-benzimidazole]"
3,794 nM,C=CCOc1c(C)cnc(C[S+]([O-])c2nc3c(C)c(C)c(C)c(C)c3[nH]2)c1C (centres unmarked) [Example 10]
4,316 nM,COc1c(C)cnc(C[S+]([O-])c2nc3c(C)c(C)c(C)c(C)c3[nH]2)c1C (centres unmarked) [Example 12]
5,794 nM,C=CCOc1c(C)cnc(C[S+]([O-])c2nc3c(C)c(C)c(C)cc3[nH]2)c1C (centres unmarked) [Example 14]
6,316 nM,COc1c(C)cnc(C[S+]([O-])c2nc3c(C)c(C)c(C)cc3[nH]2)c1C (centres unmarked) [Example 16]
7,794 nM,COc1c(C)cnc(C[S+]([O-])c2nc3cc(C4CCCCC4)ccc3[nH]2)c1C (centres unmarked) [Example 45]
8,794 nM,COc1c(C)cnc(C[S+]([O-])c2nc3cc(CO)c(C)cc3[nH]2)c1C (centres unmarked) [Example 51]
9,631 nM,COc1c(C)cnc(C[S+]([O-])c2nc3c(C)c(C(C)=O)c(C)cc3[nH]2)c1C (centres unmarked) [Example 62]
10,316 nM,CCc1c(C)cc2[nH]c([S+]([O-])Cc3ncc(C)c(OC)c3C)nc2c1C (centres unmarked) [Example 68]
11,631 nM,COc1c(C)cnc(C[S+]([O-])c2nc3c(C)c(OC)c(C)c(C)c3[nH]2)c1C (centres unmarked) [Example 74]
12,501 nM,COc1c(C)cnc(C[S+]([O-])c2nc3c4c(ccc3[nH]2)CCCC4)c1C (centres unmarked) [Example 87]
13,251 nM,C=CCOc1c(C)cnc(C[S+]([O-])c2nc3cc(CC)ccc3[nH]2)c1C (centres unmarked) [Example 94]
14,631 nM,Cc1cnc(C[S+]([O-])c2nc3cc(C(C)C)ccc3[nH]2)c(C)c1OCC1CCCO1 (centres unmarked) [Example 111]
15,398 nM,COc1c(C)cnc(C[S+]([O-])c2nc3cc(Oc4ccccc4)ccc3[nH]2)c1C (centres unmarked) [Example 118]
16,501 nM,COc1c(C)cnc(C[S+]([O-])c2nc3cc(OCCc4ccccc4)ccc3[nH]2)c1C (centres unmarked) [Example 120]
17,100 nM,COc1c(C)cnc(C[S+]([O-])c2nc3cc(-c4ccccc4)ccc3[nH]2)c1C (centres unmarked) [Example 124]
18,631 nM,Cc1ccnc(C[S+]([O-])c2nc3c(C)c(C)c(C)cc3[nH]2)c1C (centres unmarked) [Example 145]
19,398 nM,Cc1cnc(C[S+]([O-])c2nc3c(C)c(C)c(C)cc3[nH]2)cc1C (centres unmarked) [Example 147]
20,631 nM,Cc1cnc(C[S+]([O-])c2nc3c(C)c(C)c(C)cc3[nH]2)c(C)c1 (centres unmarked) [Example 149]
21,501 nM,Cc1ccnc(C[S+]([O-])c2nc3c(C)c(C)cc(C)c3[nH]2)c1C (centres unmarked) [Example 151]
22,501 nM,Cc1cnc(C[S+]([O-])c2nc3cc(C(F)(F)F)ccc3[nH]2)c(C)c1OCC1CCCO1 (centres unmarked) [Example 159]

# Tested on: gastric acid secretion in conscious dog
# Experiment: Inhibiting effect in vivo on gastric acid secretion in conscious dog (gastric fistula, histamine-stimulated)
# Conditions: intraduodenal (I.D.) dose 8 μmol/kg, free base in 0.5% Methocel
# Protocol: II. Inhibiting effect in vivo on gastric acid secretion in conscious dog
# Chronic gastric fistula dogs were used. These dogs have been surgically provided with a gastric cannula in the stomach and a duodenal fistula used for direct intraduodenal administration of test compounds. Following a 4 weeks' recovery period after surgery, tests were performed once a week on each dog. Food and water were withdrawn 18 hours before each test.
# Gastric acid secretion was induced by continuous infusion of histamine at individual doses (100-300 nmol/kg,h), resulting in submaximal secretion of gastric acid. At least 2 hours after onset of stimulation, when the gastric acid secretion had reached a steady level, the test compounds in the form of free base suspended in 0.5% Methocel® (90 HG, 15.000, Dow Chem. Corp.), were given intraduodenally at doses from 1 to 8 μmol/kg. The gastric juice was collected by free flow from the gastric cannula in consecutive 30 minutes samples for 3 hours. The samples were titrated to pH 7.0 with 0.1 M NaOH using a Radiometer automatic titrator and the acid output was calculated.
# The percent inhibition of acid secretion was calculated by comparing in each dog the acid output in the tests to the acid output in control tests when only the vehicle was given.
row,Compound,% INHIB (peak inhibitory effect on acid secretion)
1,COc1c(C)cnc(CSc2nc3cc4ccccc4cc3[nH]2)c1C [Example 84],85%
2,COc1c(C)cnc(CSc2nc3cc(SC)ccc3[nH]2)c1C [Example 109],60%
